Data as given in ChEMBL document CHEMBL1201862, “PubChem BioAssay data set” (2004).
Calls of active or inactive are those of the source.

Assays:
Prothrombin = Prothrombin (Homo sapiens, UniProt P00734); assay: Thrombin 1536 HTS Dose Response Confirmation. [Related pubchem assays: 1046 (Thrombin 1536 HTS; hits were confirmed in this assay)]; assay type: functional
[1] = HEp-2 cell cytotoxicity, dose response, cytotoxicity control for RSV inhibitor project, HTS (AID 2410); assay type: functional; conditions: human respiratory syncytial virus
[2] = target: T1, Ubiquitin-conjugating enzyme E2 N (Homo sapiens, UniProt P61088); assay type: functional;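 note: Dose-response confirmation in a TR-FRET assay detecting UBC13-driven polyubiquitin chain formation, inhibition measured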
T1 sequence (P61088 whole entry): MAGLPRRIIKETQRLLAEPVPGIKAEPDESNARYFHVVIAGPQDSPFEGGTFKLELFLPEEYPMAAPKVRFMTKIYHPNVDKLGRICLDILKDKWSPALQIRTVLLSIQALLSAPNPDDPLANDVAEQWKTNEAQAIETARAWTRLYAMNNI

[3] = target: T2, Calpain-2 catalytic subunit (Sus scrofa, UniProt P43367); assay: pig calpain II inhibitor potency, dose response, biochemical, fluorogenic peptide substrate (AID 1420); assay type: functional
T2 sequence (P43367 whole entry): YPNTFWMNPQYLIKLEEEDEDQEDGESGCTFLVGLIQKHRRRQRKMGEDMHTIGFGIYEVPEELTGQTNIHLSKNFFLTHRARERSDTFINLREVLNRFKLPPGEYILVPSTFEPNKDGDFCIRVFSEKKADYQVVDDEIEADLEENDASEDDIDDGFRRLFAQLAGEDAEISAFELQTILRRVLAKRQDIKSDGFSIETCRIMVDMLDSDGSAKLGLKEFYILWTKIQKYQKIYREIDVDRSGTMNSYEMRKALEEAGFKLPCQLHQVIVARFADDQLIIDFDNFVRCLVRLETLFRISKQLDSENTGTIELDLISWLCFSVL

Estrogen receptor = target: T3, Estrogen receptor (Homo sapiens, UniProt P03372);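 note: potency for inhibiting coactivator peptide recruitment to the receptor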
T3 sequence (P03372 whole entry): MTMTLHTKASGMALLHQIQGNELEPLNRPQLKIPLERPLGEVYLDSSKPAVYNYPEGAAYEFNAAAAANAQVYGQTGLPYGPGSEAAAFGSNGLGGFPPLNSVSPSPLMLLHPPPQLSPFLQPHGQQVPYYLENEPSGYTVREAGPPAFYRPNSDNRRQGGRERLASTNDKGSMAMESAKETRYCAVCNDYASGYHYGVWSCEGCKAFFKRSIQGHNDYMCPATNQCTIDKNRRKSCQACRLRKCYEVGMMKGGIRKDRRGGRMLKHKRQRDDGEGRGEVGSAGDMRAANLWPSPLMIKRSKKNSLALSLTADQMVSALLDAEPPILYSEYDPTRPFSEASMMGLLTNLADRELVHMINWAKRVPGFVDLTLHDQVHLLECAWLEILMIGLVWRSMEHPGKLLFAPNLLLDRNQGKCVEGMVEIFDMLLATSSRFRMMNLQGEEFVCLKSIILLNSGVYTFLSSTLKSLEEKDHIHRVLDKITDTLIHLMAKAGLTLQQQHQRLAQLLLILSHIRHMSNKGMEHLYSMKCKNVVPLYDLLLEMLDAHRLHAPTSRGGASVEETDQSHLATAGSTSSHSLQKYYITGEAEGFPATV

[4] = microbe, parasite or virus in culture; assay type: functional; conditions: Mycobacterium tuberculosis
[5] = target: T4, Replicative DNA helicase DnaB (Mycobacterium tuberculosis, UniProt P9WMR3); assay: DnaB intein splicing inhibitors, dose response, biochemical, cell-free fluorescence (AID 449749); assay type: functional
T4 sequence (P9WMR3 whole entry): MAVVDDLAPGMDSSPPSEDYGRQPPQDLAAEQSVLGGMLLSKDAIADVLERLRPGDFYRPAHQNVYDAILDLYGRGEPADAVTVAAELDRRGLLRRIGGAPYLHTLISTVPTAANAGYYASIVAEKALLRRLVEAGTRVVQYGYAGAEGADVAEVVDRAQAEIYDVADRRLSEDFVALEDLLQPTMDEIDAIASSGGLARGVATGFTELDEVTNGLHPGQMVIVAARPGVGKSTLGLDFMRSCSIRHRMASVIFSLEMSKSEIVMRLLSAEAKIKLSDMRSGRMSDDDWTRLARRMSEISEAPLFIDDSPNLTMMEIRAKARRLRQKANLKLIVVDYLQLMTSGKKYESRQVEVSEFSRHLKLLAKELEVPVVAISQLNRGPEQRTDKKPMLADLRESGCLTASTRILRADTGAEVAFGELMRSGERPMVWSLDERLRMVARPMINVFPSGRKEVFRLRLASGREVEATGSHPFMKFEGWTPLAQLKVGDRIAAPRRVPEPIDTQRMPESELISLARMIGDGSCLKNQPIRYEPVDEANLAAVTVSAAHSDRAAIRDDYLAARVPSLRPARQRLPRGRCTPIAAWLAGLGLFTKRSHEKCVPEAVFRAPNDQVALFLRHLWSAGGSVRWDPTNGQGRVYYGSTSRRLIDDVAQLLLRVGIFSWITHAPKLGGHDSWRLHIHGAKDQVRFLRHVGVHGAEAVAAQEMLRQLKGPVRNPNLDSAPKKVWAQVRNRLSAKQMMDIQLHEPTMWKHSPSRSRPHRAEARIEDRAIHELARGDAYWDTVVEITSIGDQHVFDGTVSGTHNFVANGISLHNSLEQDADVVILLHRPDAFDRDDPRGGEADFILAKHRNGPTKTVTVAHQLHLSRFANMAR

Protein RecA = target: T5, Protein RecA (Mycobacterium tuberculosis, UniProt P9WHJ3); assay: Fluorescence Cell-Free Homogeneous Dose Retest to Identify Inhibitors of RecA-Intein Splicing Activity. [Related pubchem assays (depositor defined):AID2097, AID2223, AID489010, AID492950]; assay type: functional
T5 sequence (P9WHJ3 whole entry): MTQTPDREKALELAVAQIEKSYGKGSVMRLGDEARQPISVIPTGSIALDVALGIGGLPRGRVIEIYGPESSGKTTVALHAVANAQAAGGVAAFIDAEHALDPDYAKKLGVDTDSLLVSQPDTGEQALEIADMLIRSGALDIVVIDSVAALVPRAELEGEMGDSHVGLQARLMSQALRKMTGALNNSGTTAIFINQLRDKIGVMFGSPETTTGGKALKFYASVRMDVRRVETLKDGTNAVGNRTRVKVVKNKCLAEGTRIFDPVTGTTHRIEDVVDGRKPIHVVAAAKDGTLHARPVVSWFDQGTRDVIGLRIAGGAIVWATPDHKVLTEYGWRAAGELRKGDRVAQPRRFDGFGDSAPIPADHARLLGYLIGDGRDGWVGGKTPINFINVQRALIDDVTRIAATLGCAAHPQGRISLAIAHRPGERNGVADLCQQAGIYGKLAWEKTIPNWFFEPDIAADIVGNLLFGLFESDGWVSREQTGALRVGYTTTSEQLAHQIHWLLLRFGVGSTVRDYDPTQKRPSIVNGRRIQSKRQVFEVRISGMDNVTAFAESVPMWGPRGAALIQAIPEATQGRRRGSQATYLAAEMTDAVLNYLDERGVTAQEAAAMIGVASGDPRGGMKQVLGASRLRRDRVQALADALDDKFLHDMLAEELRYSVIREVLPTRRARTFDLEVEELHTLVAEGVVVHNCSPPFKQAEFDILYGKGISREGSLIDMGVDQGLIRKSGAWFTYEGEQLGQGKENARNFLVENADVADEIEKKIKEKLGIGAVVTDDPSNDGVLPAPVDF

[6] = system: Streptococcus sp. 'group A'; assay: growth inhibition of control SK(-) GAS strain, dose response, counter-screen for streptokinase expression inhibitor project, luminescence, kanamycin, BacTiterGlo, confirmation (AID 1900); assay type: functional, organism-based
INS1 = assay: beta cell apoptosis inhibitors, cytokine rescue, dose response, luminescence, retest (AID 449756); assay type: functional, cell-based; conditions: Rattus norvegicus;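 note: cell death triggered by IL-1 beta plus TNF-alpha plus IFN-gamma mixture; protective hits raise ATP signal compared with cytokine alone wells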
Streptococcus = assay: Group A Streptococcus viability loss, dose response, counter-screen for streptokinase expression inhibitor project, luminescence, BacTiterGlo (AID 1915); assay type: functional, organism-based;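 note: potency for reduction of bacterial viability or growth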

Question: Which results are given for CC(C)c1ccc(NC(S)=Nc2ccc3c[nH]nc3c2)cc1?
Answer: IC50 (Prothrombin): 2.49 µM (active); CC50 [1]: 37.9 µM (active)

Question: Which IC50 [2] does the source give for CC[C@H](C)[C@@H](CN[C@H](C)CNC)NCCC(c1ccccc1)c1ccccc1 here?
Answer: The IC50 was > 20 µM (inactive).

Question: Which IC50 [3] does the source give for CC(C)c1onc(C(=O)Nc2cccc(Cl)c2)c1[N+](=O)[O-] here?
Answer: Its IC50 is 2.32 µM (not active).

Question: Which IC50 (Estrogen receptor) does the source give for COc1cc(NC(=O)c2cccs2)c(C(=O)OCC(=O)NCc2ccco2)cc1OC here?
Answer: The IC50 was 14.8 µM (active).

Question: What about the CC50 [4] of the same compound?
Answer: The CC50 was > 40 µM (active).

Question: Which IC50 (Prothrombin) does the source give for Nc1nc(-c2ccco2)nn1C(=O)c1ccc(Cl)cc1 here?
Answer: Its IC50 is 1.46 µM (active).

Question: What about the AC50 [5] of the same compound?
Answer: The AC50 was 14 µM (active).

Question: What about the EC50 (Protein RecA) of the same compound?
Answer: The EC50 was 55.4 µM (active).

Question: Which IC50 [3] does the source give for CCC(CC)NC(=O)COC(=O)c1ccc(OCC(=O)Nc2ccccc2OC)c(OC)c1 here?
Answer: The IC50 was 18.5 µM (not active).

Question: With Cc1ccc(-c2csc3nc4c5ccccc5c(NCCCN5CCOCC5)nn4c(=O)c23)cc1 as the compound, how does the CC50 [4] read?
Answer: The CC50 was 13.6 µM (active).

Question: Which IC50 [3] does the source give for O=c1c2c(-c3ccccc3)csc2ncn1/N=C/c1ccc(O)c([N+](=O)[O-])c1 here?
Answer: Its IC50 is 9.57 µM (not active).

Question: For Cn1c(N)c(C(=O)COC(=O)CCC2CCCC2)c(=O)n(C)c1=O, which IC50 [3] is on record?
Answer: Its IC50 is 15.5 µM (not active).

Question: With CNC[C@H](Cc1cccc2ccccc12)NC[C@H](CCSC)NCC1CCC(C(C)(C)C)CC1 (some centres undefined) as the compound, how does the CC50 [4] read?
Answer: The CC50 was 25.4 µM (active).

Question: With C=CCn1c(SCc2c(C)noc2C)nc2cc(C(=O)O)ccc2c1=O as the compound, how does the IC50 (Prothrombin) read?
Answer: Its IC50 is > 50 µM (not active).

Question: What does the source list for N=C(NNC(=O)c1sccc1OCc1ccc(Cl)cc1Cl)c1ccccn1?
Answer: EC50 [6]: 3.89 µM (active); AC50 (INS1): 5.2 µM (active); EC50 (Streptococcus): > 150 µM (not active); CC50 [4]: 6.31 µM (active)
